From US20210163471A1, “PROGRANULIN MODULATORS AND METHODS OF USING THE SAME” (ARKUDA THERAPEUTICS, priority 2017, published 2021) come the findings set out here.

This experiment concerns BV-2 (mouse microglia) cells. As to the kind of experiment: progranulin secretion from BV-2 cells, mouse progranulin ELISA of conditioned media. It counts as cell-based. The following applies: BV-2 cells, 16 hours incubation, 8-point curves starting at 10 μM. As for the experimental part:
BV-2 cells are split the day before plating into a 96 well plate format at approximately 80%. Cells should be plated the day before and allowed for 1 hour attachment period and for 16 hour incubation. […] Standard ELISA kits to measure PGRN are available from vendors such as Adipogen, R&D, and Biovendor.
Compound potency was determined by measuring progranulin secretion from BV-2 (mouse microglia) cells. BV-2 cells were grown in RPMI with 2 mM L-glutamine supplemented with 10% fetal bovine serum. On the day of the assay, cells were plated in 96-well plates at a density of 30,000 cells/well in RPMI (Roswell Park Memorial Institute media)/L-glutamine supplemented with 2% Fetal clone serum II (plating media) and left to adhere for 1 hour. Following attachment to the plate, media was replaced with treatment (8-point curves in half-log dilutions starting at 10 μM) in plating media and incubated for 16 hours. Secreted progranulin was measured from a 1:10 dilution of the conditioned media using the R&D Systems mouse progranulin ELISA kit (cat #DY2557) and following the manufacturer's instructions.

The mark [1] stands for this setting: Mus musculus, BV-2, 16 h, assay run v1, read-out: PRGN v1 (EC50, progranulin secretion).
Where [2] appears, read: Mus musculus, BV-2, 16 h, assay run v2 (same protocol, different assay), read-out: PRGN v2 (EC50, progranulin secretion).
Setting [3] is: assay run v2 (same protocol, different assay), read-out: PRGN v2 (EC50, progranulin secretion).
Where [4] appears, read: Mus musculus, assay run v2 (same protocol, different assay), read-out: PRGN v2 (EC50, progranulin secretion).

pEC50: −log10 of the molar value. Where two headings read alike, the source gives them in different places.

`CC1([C@H]2c3ccccc3CCN2C(=O)N[C@@H]2CN3CCC2CC3)COC1` [Compound 1089]: the pEC50 under setting [1] is under 5.00. Take `CC1([C@@H]2c3ccccc3CCN2C(=O)N[C@@H]2CN3CCC2CC3)COC1` [Compound 1090]: the pEC50 under setting [1] is under 5.00. For the compound `O=C(N[C@@H]1CN2CCC1CC2)N1CCc2ccccc2[C@@H]1c1ccc(OCc2ccccc2)cc1` [Compound 1091], the negative logarithm of the EC50 (pEC50) under setting [1] was 6.47. On the same count and under the same terms, with `O=C(N[C@@H]1CN2CCC1CC2)N1CCc2ccccc2[C@H]1c1ccc(OCc2ccccc2)cc1` [Compound 1092] the figure was 5.66; with `O=C(N[C@@H]1CN2CCC1CC2)N1CCc2ccccc2[C@@H]1c1ccc(O)cc1` [Compound 1093], under 5.50.

For the compound `O=C(N[C@@H]1CN2CCC1CC2)N1CCc2ccccc2[C@H]1c1ccc(O)cc1` [Compound 1094], the negative logarithm of the EC50 (pEC50) under setting [1] is 5.89. Still for that read-out and setting: next, `O=C(N[C@@H]1CN2CCC1CC2)N1CCc2ccccc2[C@@H]1c1ccc(-n2ccnc2)cc1` [Compound 1095]: under 5.00; `O=C(N[C@@H]1CN2CCC1CC2)N1CCc2ccccc2[C@H]1c1ccc(-n2ccnc2)cc1` [Compound 1096]: 6.35.

As for `O=C(N[C@@H]1CN2CCC1CC2)N1CCc2ccccc2[C@@H]1c1ccn2cncc2c1` [Compound 1097], under setting [1], the negative-log EC50 (pEC50) was under 5.00.

Turning to `O=C(N[C@@H]1CN2CCC1CC2)N1CCc2ccccc2[C@H]1c1ccn2cncc2c1` [Compound 1098], the negative-log EC50 (pEC50) under setting [1] was under 5.00. The same measure, in the same setting: with `O=C(N[C@@H]1CN2CCC1CC2)N1CCc2ccccc2[C@@H]1c1ccc(-n2ccnn2)cc1` [Compound 1099] the figure was under 5.00. The same measure, in the same setting: with `O=C(N[C@@H]1CN2CCC1CC2)N1CCc2ccccc2[C@H]1c1ccc(-n2ccnn2)cc1` [Compound 1100] the figure was under 5.00; with `O=C(N[C@@H]1CN2CCC1CC2)N1CCc2ccccc2[C@@H]1c1ccc(-n2cncn2)cc1` [Compound 1101], 5.41; with `O=C(N[C@@H]1CN2CCC1CC2)N1CCc2ccccc2[C@H]1c1ccc(-n2cncn2)cc1` [Compound 1102], under 5.00. The same measure, in the same setting: next, `O=C(N[C@@H]1CN2CCC1CC2)N1CCc2ccccc2[C@@H]1c1ccc(N2CCCC2)cc1` [Compound 1103]: under 5.00. For `O=C(N[C@@H]1CN2CCC1CC2)N1CCc2ccccc2[C@H]1c1ccc(N2CCCC2)cc1` [Compound 1104], the pEC50 under setting [1] was 5.29. `O=C(N[C@@H]1CN2CCC1CC2)N1CCc2ccccc2[C@@H]1c1ccn2ccnc2c1` [Compound 1105]: the pEC50 is under 5.00 under setting [1] and under 5.00 under setting [2].

As to `O=C(N[C@@H]1CN2CCC1CC2)N1CCc2ccccc2[C@H]1c1ccn2ccnc2c1` [Compound 1106], the negative logarithm of the EC50 (pEC50) reads like this: under setting [1], under 5.00; under setting [2], under 5.00. As for `O=C(N[C@@H]1CN2CCC1CC2)N1CCc2ccccc2[C@@H]1c1ccc2cccn2c1` [Compound 1107], the pEC50 runs as follows: under setting [3], 5.43; under setting [1], 5.27.

`O=C(N[C@@H]1CN2CCC1CC2)N1CCc2ccccc2[C@@H]1c1ccc2cccn2c1` [Compound 1108]: the negative-log EC50 (pEC50) reads like this: (assay run v1, read-out: PRGN v1 (EC50, progranulin secretion)) 5.25; under setting [3], under 5.00. On to `O=C(N[C@@H]1CN2CCC1CC2)N1CCc2ccccc2[C@@H]1c1cccc(F)c1` [Compound 1109], for which the pEC50 runs as follows: under setting [1], 5.99; under setting [2], 5.84.

As to `O=C(N[C@@H]1CN2CCC1CC2)N1CCc2ccccc2[C@H]1c1cccc(F)c1` [Compound 1110], the negative logarithm of the EC50 (pEC50) reads like this: under setting [1], 5.21; under setting [2], under 5.00. On the same counts, the results for `O=C(N[C@@H]1CN2CCC1CC2)N1CCc2ccccc2[C@@H]1c1ccc2cncn2c1` [Compound 1111] are 5.00 and under 5.00. For `O=C(N[C@@H]1CN2CCC1CC2)N1CCc2ccccc2[C@H]1c1ccc2cncn2c1` [Compound 1112], the pEC50 is under 5.00 under setting [1] and under 5.00 under setting [2]. On to `O=C(N[C@@H]1CN2CCC1CC2)N1CCc2ccccc2[C@@H]1c1ccc(-n2cnnc2)cc1` [Compound 1113], for which the pEC50 under setting [1] was 5.44 and the pEC50 under setting [2] is under 5.00.

`O=C(N[C@@H]1CN2CCC1CC2)N1CCc2ccccc2[C@H]1c1ccc(-n2cnnc2)cc1` [Compound 1114]: the pEC50 was under 5.00 under setting [1] and under 5.00 under setting [2]. As to `O=C(N[C@@H]1CN2CCC1CC2)N1CCc2ccccc2[C@@H]1c1ccc(OC2CC2)cc1` [Compound 1115], the pEC50 is 5.40 under setting [1] and 5.93 under setting [2]. `O=C(N[C@@H]1CN2CCC1CC2)N1CCc2ccccc2[C@H]1c1ccc(OC2CC2)cc1` [Compound 1116]: the pEC50 under setting [1] is 5.35 and the pEC50 under setting [2] is under 5.00. For `O=C(N[C@@H]1CN2CCC1CC2)N1CCc2ccccc2[C@@H]1c1cnc2nccn2c1` [Compound 1117] the same measures were under 5.00 and under 5.00. For `O=C(N[C@@H]1CN2CCC1CC2)N1CCc2ccccc2[C@H]1c1cnc2nccn2c1` [Compound 1118] the same measures were under 5.00 and under 5.00. On the same counts, the results for `O=C1CCCN1c1ccc([C@H]2c3ccccc3CCN2C(=O)N[C@@H]2CN3CCC2CC3)cc1` [Compound 1119] are under 5.00 and under 5.00. Consider `O=C1CCCN1c1ccc([C@@H]2c3ccccc3CCN2C(=O)N[C@@H]2CN3CCC2CC3)cc1` [Compound 1120], for which the pEC50 runs as follows: under setting [1], under 5.00; under setting [2], under 5.00. With `O=C(N[C@@H]1CN2CCC1CC2)N1CCc2cccnc2[C@@H]1c1ccc(Cl)cc1` [Compound 1121], the pEC50 under setting [1] was under 5.00 and the pEC50 under setting [2] is 5.28. On the same counts, the results for `O=C(N[C@@H]1CN2CCC1CC2)N1CCc2cccnc2[C@H]1c1ccc(Cl)cc1` [Compound 1122] are 5.50 and under 5.00. Consider `CS(=O)(=O)N1CC([C@H]2c3ccccc3CCN2C(=O)N[C@@H]2CN3CCC2CC3)C1` [Compound 1123], for which the pEC50 runs as follows: under setting [1], under 5.00; under setting [2], under 5.00. `CS(=O)(=O)N1CC([C@@H]2c3ccccc3CCN2C(=O)N[C@@H]2CN3CCC2CC3)C1` [Compound 1124]: the pEC50 is, setting by setting: under setting [1], under 5.00; under setting [2], under 5.00. For `O=C(Cc1ccccc1)N1CCc2ccccc2[C@@H]1c1ccc(F)cc1` [Compound 1125, (S)-1-(1-(4-fluorophenyl)-3,4-dihydroisoquinolin-2(1H)-yl)-2-phenylethanone], the pEC50 under setting [2] was under 5.00. Consider `O=C(O[C@@H]1CN2CCC1CC2)N1CCc2ccccc2[C@@H]1c1ccc(C(F)(F)F)cc1` [Compound 1126], for which the pEC50 under setting [4] is 5.07. `O=C(O[C@@H]1CN2CCC1CC2)N1CCc2ccccc2[C@H]1c1ccc(C(F)(F)F)cc1` [Compound 1127]: the negative logarithm of the EC50 (pEC50) under setting [4] was under 5.00. Same read-out and setting: next, `O=C(O[C@@H]1CN2CCC1CC2)N1CCc2ccccc2[C@@H]1c1ccc(OC(F)(F)F)cc1` [Compound 1128]: 5.59; `O=C(O[C@@H]1CN2CCC1CC2)N1CCc2ccccc2[C@H]1c1ccc(OC(F)(F)F)cc1` [Compound 1129]: 5.36. As to `CN(C(=O)N1CCc2ccccc2[C@@H]1c1ccc(F)cc1)[C@@H]1CN2CCC1CC2` [Compound 1130], the pEC50 under setting [2] was 5.99. The same measure, in the same setting: with `CN(C(=O)N1CCc2ccccc2[C@@H]1c1ccc(F)cc1)[C@H]1CN2CCC1CC2` [Compound 1131] the figure was under 5.00. As to `Cc1nc2cc([C@H]3c4ccccc4CCN3C(=O)O[C@@H]3CN4CCC3CC4)ccc2s1` [Compound 1132], under setting [4], the pEC50 is under 5.00.

`Cc1nc2cc([C@@H]3c4ccccc4CCN3C(=O)O[C@@H]3CN4CCC3CC4)ccc2s1` [Compound 1133]: the pEC50 under setting [4] is 5.03. Take `O=C(O[C@@H]1CN2CCC1CC2)N1CCc2ccccc2[C@@H]1COc1ccc(F)cc1` [Compound 1134]: the negative logarithm of the EC50 (pEC50) under setting [3] was under 5.00.

Consider `O=C(O[C@@H]1CN2CCC1CC2)N1CCc2ccccc2[C@H]1COc1ccc(F)cc1` [Compound 1135], for which the pEC50 under setting [3] was under 5.00. As to `O=S(=O)(C[C@@H]1CN2CCC1CC2)N1CCc2ccccc2[C@@H]1c1ccc(F)cc1` [Compound 1136], under setting [2], the pEC50 is 5.77. On the same count and under the same terms, next, `O=S(=O)(C[C@H]1CN2CCC1CC2)N1CCc2ccccc2[C@@H]1c1ccc(F)cc1` [Compound 1137]: 5.36. For the compound `Cc1nc2ccc([C@H]3c4ccccc4CCN3C(=O)O[C@@H]3CN4CCC3CC4)cc2o1` [Compound 1138], the pEC50 under setting [4] was under 5.00. On to `Cc1nc2ccc([C@@H]3c4ccccc4CCN3C(=O)O[C@@H]3CN4CCC3CC4)cc2o1` [Compound 1139], for which the negative logarithm of the EC50 (pEC50) under setting [4] is under 5.00.

Take `O=S(=O)(C[C@@H]1CN2CCC1CC2)N1CCc2ccccc2[C@@H]1c1ccccc1` [Compound 1140]: the pEC50 under setting [2] is under 5.00. On the same count and under the same terms, next, `O=S(=O)(C[C@@H]1CN2CCC1CC2)N1CCc2ccccc2[C@H]1c1ccccc1` [Compound 1141]: 5.47; `O=S(=O)(C[C@H]1CN2CCC1CC2)N1CCc2ccccc2[C@@H]1c1ccccc1` [Compound 1142]: under 5.00. The same measure, in the same setting: next, `O=S(=O)(C[C@H]1CN2CCC1CC2)N1CCc2ccccc2[C@H]1c1ccccc1` [Compound 1143]: under 5.00.
